How the values were obtained:
serotonin 5-HT2 = details: cited from earlier work
[1] = Light stability study of film-coated sertindole tablets (HPLC degradation products); type: physicochemical; details: film-coated tablets with white film-coating layer containing titanium dioxide, 2-4% film-layer relative to tablet core weight
Excerpt: 10 tablets of each sample were placed in a light cabinet (Heraeus Suntest CPS+) and were exposed to light providing an overall illumination of not less than 1.2 million lux hours, and an integrated near ultraviolet energy of not less than 200 watt hours/m^2. The tablets were placed directly in petri dishes in a single layer. […] The dark control was placed beside the sample and was protected against light, wrapped in aluminium foil. After light exposure the tablets (sample and dark control) were analysed for degradation products by HPLC analysis.
The samples of 10 tablets were disintegrated by the means of 0.1 M acetic acid. Next acetonitrile was added for extraction and subsequently the samples were made to volume with methanol/water (50/50). Final concentration: 0.4 mg/ml.
Samples from the light stability studies were analysed by HPLC.
Reversed phase chromatography was performed using a LiChrospher 100 RP-8, 5 μm, 250×4 mm ID with pre-column: LiChrospher 100 RP-8, 5 μm.
The mobile phase consisted of Tetrahydrofurane/acetonitrile/25 mM phosphate buffer pH 7.2 (7/43/50). […]
Quantification of the degradation products was done from area %, using the normalization factor 0.9 for Lu 26-115 (1-(2-(4-(5-Chloro-1-(4-fluorophenyl)-1H-indol-3-yl)-1-piperidinyl-1-oxide)ethyl)-2-imidazolidinone) and the normalization factor 1.0 for other impurities.

dopamine D2 = dopamine D2 (Homo sapiens, UniProt P14416); details: cited from earlier work
α1-adrenergic receptors = details: cited from earlier work
[2] = clinical development programme; cited from earlier work

Sequence of dopamine D2 (P14416 whole entry): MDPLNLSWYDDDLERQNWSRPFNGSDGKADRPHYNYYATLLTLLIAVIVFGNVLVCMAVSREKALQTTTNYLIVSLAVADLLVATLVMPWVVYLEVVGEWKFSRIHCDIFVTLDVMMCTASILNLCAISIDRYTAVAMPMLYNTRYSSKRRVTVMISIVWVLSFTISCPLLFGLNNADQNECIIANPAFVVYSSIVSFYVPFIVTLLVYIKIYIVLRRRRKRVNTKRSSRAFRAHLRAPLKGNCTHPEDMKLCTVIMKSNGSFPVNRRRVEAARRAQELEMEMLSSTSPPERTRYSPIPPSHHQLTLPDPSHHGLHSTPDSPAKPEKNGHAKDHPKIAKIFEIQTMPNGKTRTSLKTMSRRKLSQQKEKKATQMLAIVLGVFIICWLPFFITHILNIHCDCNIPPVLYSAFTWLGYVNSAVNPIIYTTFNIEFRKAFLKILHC

SMILES: O=C1NCCN1CCN1CCC(c2cn(-c3ccc(F)cc3)c3ccc(Cl)cc23)CC1 [Sertindole]
- affinity for serotonin 5-HT2 (serotonin 5-HT2): high affinity
- light sensitivity [1]: undergoes a light-induced degradation process
- affinity for dopamine D2 (dopamine D2): high affinity
- affinity for α1-adrenergic receptors (α1-adrenergic receptors): high affinity
- effect on symptoms of schizophrenia [2]: effect against both positive and negative symptoms of schizophrenia
- incidence of extrapyramidal side effects [2]: placebo-level incidence
- tolerability [2]: well-tolerated

Source: patent US20070212412A1, “STABLE SOLID FORMULATION OF SERTINDOLE” (H. Lundbeck A/S, priority 2005, published 2007)
